Results published in patent US20250346585A1 (Alexion Pharmaceuticals, Inc., priority 2022, published 2025).

Each molecule was assayed against Human complement C1s enzyme (Homo sapiens (Human), UniProt P09871) (assay: Human C1s enzyme assay). Conditions: Human C1s enzyme assay of Example 3; read-out: IC50 (Stars).
Type: biochemical
Outline: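 IC50 derived by nonlinear regression of rate versus concentration, with rate taken from A405 kinetics (30 s intervals, 30 min) after adding 100 μM each Z-L-Lys-SBzl and DTNB. C1s from human serum, 1.16 nM, exposed to compound for 5 min at RT beforehand; buffer 50 mM Tris, 1 M NaCl, pH 7.5.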

Human complement C1s enzyme, sequence (P09871 438-688 limits assumed): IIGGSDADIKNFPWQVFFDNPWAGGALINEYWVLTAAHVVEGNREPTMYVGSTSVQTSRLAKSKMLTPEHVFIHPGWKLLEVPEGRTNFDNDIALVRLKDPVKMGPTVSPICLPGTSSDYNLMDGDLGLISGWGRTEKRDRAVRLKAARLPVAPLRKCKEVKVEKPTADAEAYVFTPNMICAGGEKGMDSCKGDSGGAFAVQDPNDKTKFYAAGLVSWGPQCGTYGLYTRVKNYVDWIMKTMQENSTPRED
Human complement C1s enzyme, sequence (P09871 16-437 partner limits assumed): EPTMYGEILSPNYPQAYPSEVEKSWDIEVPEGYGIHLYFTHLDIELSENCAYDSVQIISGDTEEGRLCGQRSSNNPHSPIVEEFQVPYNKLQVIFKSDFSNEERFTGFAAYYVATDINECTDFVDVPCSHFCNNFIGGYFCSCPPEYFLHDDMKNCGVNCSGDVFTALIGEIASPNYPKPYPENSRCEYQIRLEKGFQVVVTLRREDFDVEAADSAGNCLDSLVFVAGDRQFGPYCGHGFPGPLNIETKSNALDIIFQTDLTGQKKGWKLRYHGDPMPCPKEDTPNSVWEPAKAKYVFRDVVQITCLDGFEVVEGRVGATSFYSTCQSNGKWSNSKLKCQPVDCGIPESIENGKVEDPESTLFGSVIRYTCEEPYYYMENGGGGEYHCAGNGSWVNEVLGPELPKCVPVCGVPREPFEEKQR

Q: `N=C(N)c1csc(CNC(=O)[C@@H]2CC3(CN2C(=O)CNC(=O)c2ccc(-c4ccccc4)cc2)OCCO3)c1` [Compound 77, (S)-7-(([1,1′-biphenyl]-4-carbonyl)glycyl)-N-((4-carbamimidoylthiophen-2-yl)methyl)-1,4-dioxa-7-azaspiro[4.4]nonane-8-carboxamide] was tested. Which IC50 did it give?
A: Its IC50 is less than 100 nM.

Q: Which IC50 does the source give for `Cc1ccc(Oc2ccc(C(=O)NCC(=O)N3C[C@H](OC(F)F)C[C@H]3C(=O)NCc3cc(C(=N)N)cs3)cc2)cc1` [Compound 10, (2S,4R)—N-((4-carbamimidoylthiophen-2-yl)methyl)-4-(difluoromethoxy)-1-((4-(p-tolyloxy)benzoyl)glycyl)pyrrolidine-2-carboxamide] here?
A: Its IC50 is less than 100 nM.

Q: How did the IC50 turn out when `CC1c2ccccc2-c2cc(C(=O)NCC(=O)N3CC4(C[C@H]3C(=O)N[C@H](C)c3cc(C(=N)N)cs3)OCCO4)ccc21` (stereo partly drawn) [Compound 99, (8S)—N-[(1R)-1-(4-carbamimidoylthiophen-2-yl)ethyl]-7-{2-[(9-methyl-9H-fluoren-3-yl)formamido]acetyl}-1,4-dioxa-7-azaspiro[4.4]nonane-8-carboxamide] was run?
A: The IC50 was less than 100 nM.

Q: For `Cc1ccc(Oc2ccc(C(=O)NCC(=O)N3[C@H]4C[C@@]4(C)C[C@H]3C(=O)N[C@H](C)c3cc(C(=N)N)cs3)cc2)cc1` [Compound 7, (1S,3S,5S)—N—((R)-1-(4-carbamimidoylthiophen-2-yl)ethyl)-5-methyl-2-((4-(p-tolyloxy)benzoyl)glycyl)-2-azabicyclo[3.1.0]hexane-3-carboxamide], which IC50 is on record?
A: The IC50 was less than 100 nM.

Q: With `C[C@@H](NC(=O)[C@@H]1CC2(CN1C(=O)CNC(=O)c1ccc3c(c1)-c1ccccc1C3(F)F)OCCO2)c1cc(-c2ncc[nH]2)cs1` [Compound 87, (S)—N—((R)-1-(4-(1H-imidazol-2-yl)thiophen-2-yl)ethyl)-7-((9,9-difluoro-9H-fluorene-3-carbonyl)glycyl)-1,4-dioxa-7-azaspiro[4.4]nonane-8-carboxamide] as the molecule, how does the IC50 read?
A: The IC50 was less than 100 nM.

Q: For `C[C@@H](NC(=O)[C@@H]1CC2(CN1C(=O)CNC(=O)c1ccc3oc4ccccc4c3c1)OCCO2)c1cc(C(=N)N)cs1` [Compound 137, (S)—N—((R)-1-(4-carbamimidoylthiophen-2-yl)ethyl)-7-((dibenzo[b,d]furan-2-carbonyl)glycyl)-1,4-dioxa-7-azaspiro[4.4]nonane-8-carboxamide], which IC50 is on record?
A: The IC50 was less than 100 nM.

Q: For `C[C@@H](NC(=O)[C@@H]1CC2(CN1C(=O)CNC(=O)c1ccc3c(c1)-c1ccccc1C3(F)F)OCCO2)c1cc(-c2nn[nH]n2)cs1` [Compound 92, (S)—N—((R)-1-(4-(2H-tetrazol-5-yl)thiophen-2-yl)ethyl)-7-((9,9-difluoro-9H-fluorene-3-carbonyl)glycyl)-1,4-dioxa-7-azaspiro[4.4]nonane-8-carboxamide], which IC50 is on record?
A: The IC50 was greater than 1000 nM.

Q: `COC[C@@]1(F)C[C@@H](C(=O)NCc2ccc(C(=N)N)s2)N(C(=O)CNC(=O)c2ccc(Oc3ccc(F)cc3)cc2)C1` [Compound 68, (2S,4R)—N-((5-carbamimidoylthiophen-2-yl)methyl)-4-fluoro-1-((4-(4-fluorophenoxy)benzoyl)glycyl)-4-(methoxymethyl)pyrrolidine-2-carboxamide] was tested. Which IC50 did it give?
A: Its IC50 is less than 100 nM.

Q: With `C[C@@H](NC(=O)[C@@H]1CC2(CN1C(=O)CNC(=O)c1ccc(-c3ccc(F)cc3)cc1)OCCO2)c1cc(C(=N)N)cs1` [Compound 101, (S)—N—((R)-1-(4-carbamimidoylthiophen-2-yl)ethyl)-7-((4′-fluoro-[1,1′-biphenyl]-4-carbonyl)glycyl)-1,4-dioxa-7-azaspiro[4.4]nonane-8-carboxamide] as the molecule, how does the IC50 read?
A: The IC50 was less than 100 nM.

Q: Which IC50 does the source give for `Cc1ccc(-c2ccc(C(=O)NCC(=O)N3CC4(C[C@H]3C(=O)N[C@H](C)c3cc(C(=N)N)cs3)OCCO4)cc2)c(C)c1` [Compound 169, (S)—N—((R)-1-(4-carbamimidoylthiophen-2-yl)ethyl)-7-((2′,4′-dimethyl-[1,1′-biphenyl]-4-carbonyl)glycyl)-1,4-dioxa-7-azaspiro[4.4]nonane-8-carboxamide] here?
A: The IC50 was less than 100 nM.

Q: `Cc1ccc2c(c1)C(F)(F)c1ccc(C(=O)NCC(=O)N3CC4(C[C@H]3C(=O)N[C@H](C)c3cc(C(=N)N)cs3)OCCO4)cc1-2` [Compound 190, (S)—N—((R)-1-(4-carbamimidoylthiophen-2-yl)ethyl)-7-((9,9-difluoro-7-methyl-9H-fluorene-3-carbonyl)glycyl)-1,4-dioxa-7-azaspiro[4.4]nonane-8-carboxamide] was tested. Which IC50 did it give?
A: Its IC50 is less than 100 nM.

Q: `CO[C@@H]1C[C@@H](C(=O)N[C@H](C)c2cc(C(=N)N)cs2)N(C(=O)CNC(=O)c2ccc(Oc3ccc(F)cc3)cc2)C1` [Compound 70, (2S,4R)—N—((R)-1-(4-carbamimidoylthiophen-2-yl)ethyl)-1-((4-(4-fluorophenoxy)benzoyl)glycyl)-4-methoxypyrrolidine-2-carboxamide] was tested. Which IC50 did it give?
A: Its IC50 is less than 100 nM.

Q: How did the IC50 turn out when `Nc1ccc(-c2csc(CNC(=O)[C@@H]3CC4(CN3C(=O)CNC(=O)c3ccc(Oc5ccc(F)cc5)cc3)OCCO4)c2)cn1` [Compound 123, (S)—N-((4-(6-aminopyridin-3-yl)thiophen-2-yl)methyl)-7-((4-(4-fluorophenoxy)benzoyl)glycyl)-1,4-dioxa-7-azaspiro[4.4]nonane-8-carboxamide] was run?
A: The IC50 was greater than 1000 nM.

Same assay, conditions: Human complement C1s enzyme 1.16 nM, substrate Z-L-Lys-SBzl 100 μM, assay of Example 3; read-out: IC50 (Stars)

Q: `CO[C@@H]1C[C@@H](C(=O)N[C@H](C)c2cc(C(=N)N)cs2)N(C(=O)CNC(=O)c2ccc3cc4ccccc4cc3c2)C1` [Compound 278, (2S,4R)-1-((anthracene-2-carbonyl)glycyl)-N—((R)-1-(4-carbamimidoylthiophen-2-yl)ethyl)-4-methoxypyrrolidine-2-carboxamide] was tested. Which IC50 did it give?
A: Its IC50 is less than 100 nM.

Q: `N=C(N)c1csc(CNC(=O)[C@@H]2CC3(CN2C(=O)CN2Cc4cc(-c5ccc(F)cc5)ccc4C2=O)OCCO3)c1` [Compound 230] was tested. Which IC50 did it give?
A: The IC50 was less than 100 nM.

Q: How did the IC50 turn out when `C[C@@H](NC(=O)[C@@H]1CC2(CN1C(=O)CNC(=O)c1ccc3cc4ccccc4nc3c1)OCCO2)c1cc(C(=N)N)cs1` [Compound 331, (S)-7-((acridine-3-carbonyl)glycyl)-N—((R)-1-(4-carbamimidoylthiophen-2-yl)ethyl)-1,4-dioxa-7-azaspiro[4.4]nonane-8-carboxamide] was run?
A: The IC50 was less than 100 nM.

Q: `O=C(NCC(=O)N1CC2(C[C@H]1C(=O)NCc1cc(Nc3nccs3)cs1)OCCO2)c1ccc(Oc2ccc(F)cc2)cc1` [Compound 282, (S)-7-((4-(4-fluorophenoxy)benzoyl)glycyl)-N-((4-(thiazol-2-ylamino)thiophen-2-yl)methyl)-1,4-dioxa-7-azaspiro[4.4]nonane-8-carboxamide] was tested. Which IC50 did it give?
A: The IC50 was greater than 1000 nM.

Q: With `C[C@@H](NC(=O)[C@@H]1C[C@@H](OC(F)F)CN1C(=O)CNC(=O)c1ccc2c(c1)S(=O)(=O)c1ccccc1-2)c1cc(C(=N)N)cs1` [Compound 362, (2S,4R)—N—((R)-1-(4-carbamimidoylthiophen-2-yl)ethyl)-4-(difluoromethoxy)-1-((5,5-dioxidodibenzo[b,d]thiophene-3-carbonyl)glycyl) pyrrolidine-2-carboxamide] as the molecule, how does the IC50 read?
A: Its IC50 is less than 100 nM.

Same assay, conditions: Human complement C1s enzyme 1.16 nM, substrate Z-L-Lys-SBzl; assay of Example 3; read-out: IC50 (Stars)

Q: How did the IC50 turn out when `CC1(C)c2ccccc2-c2cc(C(=O)NCC(=O)N3C[C@H](OC(F)F)C[C@H]3C(=O)N[C@H](CO)c3cc(C(=N)N)cs3)ccc21` [Compound 413, (2S,4R)—N—((R)-1-(4-carbamimidoylthiophen-2-yl)-2-hydroxyethyl)-4-(difluoromethoxy)-1-((9,9-dimethyl-9H-fluorene-3-carbonyl)glycyl) pyrrolidine-2-carboxamide] was run?
A: The IC50 was less than 100 nM.
